Earlier results as cited in patent publication US11406718B2, “Methods of detecting pancreobiliary ductal leaks” (CHIRHOCLIN, INC., priority 2012, dated 2022).
No end group written: not given here.

Row | Substance | serious adverse drug reactions (human secretin stimulation) | adverse reaction seen rarely (thousands of patients in pancreobiliary function testing with human secretin) | effect on pancreatic duct diameter (pancreas; in vivo) | effect on sphincter of Oddi (pancreas; in vivo) | effect on pancreatic juice (pancreas; primary action) | allergic reactions (human, in vivo) | dose safely given (human, in vivo) [µg/kg] | hemodynamic effects (human, in vivo) | largest dose administered in a study, found safe (human, in vivo) [µg] | risk of acute pancreatitis episodes (human, in vivo)
1 | human secretin | There has not been any serious reported adverse drug reaction | flushing of the face with stable vital signs | – | – | – | – | – | – | – | –
2 | secretin (HSDGTFTSELSRLRDSARLQRLLQGLV; ends and bridges not checked; UniProt P63298 33-59, looked up) | – | – | increases the pancreatic duct diameter | causes sphincter of Oddi relaxation | increase the volume and bicarbonate content of pancreatic juice | No allergic reactions have been reported | 0.78 | No significant hemodynamic effects have been observed | 160 | not known to increase the risk of acute pancreatitis episodes
